Measurements taken from PMC7216583 (Parasites & Vectors, 2020).
Read-outs that look alike come from different tables or passages of the source.

Columns and labels:
PARP1 = target: PARP1; parameters: method as in S-inhibitor; conditions: ref S-inhibitor; cited from earlier work
[1] = test system: Toxoplasma gondii RH-2F tachyzoites; assay: microbe, parasite or virus in culture; conditions: 72 h
ErbB4 = test system: ErbB4; parameters: method as in S-inhibitor; conditions: ref S-inhibitor; cited from earlier work
EGFR = test system: EGFR; parameters: method as in S-inhibitor; conditions: ref S-inhibitor; cited from earlier work
HER2/ErbB2 = test system: HER2/ErbB2; parameters: method as in S-inhibitor; conditions: ref S-inhibitor; cited from earlier work
ErbB3 = test system: ErbB3; parameters: method as in S-inhibitor; conditions: ref S-inhibitor; cited from earlier work
FGFR3 = test system: FGFR3; parameters: method as in S-inhibitor; conditions: ref S-inhibitor; cited from earlier work
FGFR1 = test system: FGFR1; parameters: method as in S-inhibitor; conditions: ref S-inhibitor; cited from earlier work
Plk1 = test system: Plk1; parameters: method as in S-inhibitor catalog; conditions: vendor brief description; ref S-inhibitor catalog; cited from earlier work
p110α [2] = test system: p110α; parameters: method as in S-inhibitor catalog; conditions: vendor brief description; ref S-inhibitor catalog; cited from earlier work
MDA-MB-435 cell line = test system: MDA-MB-435 cell line; parameters: method as in S-inhibitor catalog; conditions: vendor brief description; ref S-inhibitor catalog; read-out: IC50, inhibition of growth of MDA-MB-435; cited from earlier work
HL60 cell line = test system: HL60 cell line; parameters: method as in S-inhibitor catalog; conditions: vendor brief description; ref S-inhibitor catalog; read-out: IC50, inhibition of growth of HL60; cited from earlier work
HeLa cell line = test system: HeLa cell line; parameters: method as in S-inhibitor catalog; conditions: vendor brief description; ref S-inhibitor catalog; read-out: IC50, inhibition of growth of HeLa; cited from earlier work
H14 cell line = test system: H14 cell line; parameters: method as in S-inhibitor catalog; conditions: vendor brief description; ref S-inhibitor catalog; read-out: IC50, inhibition of growth of H14; cited from earlier work
hERG K+ channel = conditions: cited from earlier work
PDE4B = test system: PDE4B; parameters: method as in S-inhibitor catalog; conditions: vendor brief description; ref S-inhibitor catalog; cited from earlier work
ALK3 = test system: ALK3; parameters: method as in S-inhibitor catalog; conditions: vendor brief description; ref S-inhibitor catalog; cited from earlier work
ALK2 = test system: ALK2; parameters: method as in S-inhibitor catalog; conditions: vendor brief description; ref S-inhibitor catalog; cited from earlier work
glucokinase (GK) = target: glucokinase (GK); parameters: method as in S-inhibitor; conditions: ref S-inhibitor; read-out: EC50, glucokinase activation; cited from earlier work
V617F mutant JAK2 = test system: V617F mutant JAK2; parameters: method as in S-inhibitor; conditions: in Ba/F3 cells; ref S-inhibitor; cited from earlier work
c-Raf = test system: c-Raf; parameters: method as in S-inhibitor; conditions: ref S-inhibitor; cited from earlier work
EphB4 = test system: EphB4; parameters: method as in S-inhibitor; conditions: ref S-inhibitor; cited from earlier work
Abl = test system: Abl; parameters: method as in S-inhibitor; conditions: ref S-inhibitor; read-out: IC50, c-Abl; cited from earlier work
Src = test system: Src; parameters: method as in S-inhibitor; conditions: ref S-inhibitor; cited from earlier work
VEGFR2 [3] = test system: VEGFR2; parameters: method as in S-inhibitor; conditions: ref S-inhibitor; cited from earlier work
mTORC1 = test system: mTORC1; parameters: method as in S-inhibitor catalog; conditions: vendor brief description; ref S-inhibitor catalog; cited from earlier work
mTORC2 = test system: mTORC2; parameters: method as in S-inhibitor catalog; conditions: vendor brief description; ref S-inhibitor catalog; cited from earlier work
p110α [4] = test system: p110α; parameters: method as in S-inhibitor; conditions: ref S-inhibitor; cited from earlier work
p110β = test system: p110β; parameters: method as in S-inhibitor; conditions: ref S-inhibitor; cited from earlier work
p110δ = test system: p110δ; parameters: method as in S-inhibitor; conditions: ref S-inhibitor; cited from earlier work
p110γ = test system: p110γ; parameters: method as in S-inhibitor; conditions: ref S-inhibitor; cited from earlier work
bFGF = test system: bFGF; parameters: method as in S-inhibitor catalog; conditions: vendor brief description; ref S-inhibitor catalog; cited from earlier work
VEGF-A = test system: VEGF-A; parameters: method as in S-inhibitor catalog; conditions: vendor brief description; ref S-inhibitor catalog; cited from earlier work
Syk = test system: Syk; parameters: method as in S-inhibitor catalog; conditions: vendor brief description; ref S-inhibitor catalog; cited from earlier work
Colo205 = test system: Colo205; parameters: method as in S-inhibitor; conditions: ref S-inhibitor; read-out: IC50, Colo205 cell line; cited from earlier work
MV522 = test system: MV522; parameters: method as in S-inhibitor; conditions: ref S-inhibitor; read-out: IC50, MV522 cell line; cited from earlier work
SKOV3 = test system: SKOV3; parameters: method as in S-inhibitor; conditions: ref S-inhibitor; read-out: IC50, SKOV3 cell line; cited from earlier work
MX1 = test system: MX1; parameters: method as in S-inhibitor; conditions: ref S-inhibitor; read-out: IC50, MX1 cell line; cited from earlier work
P388 = test system: P388; parameters: method as in S-inhibitor; conditions: ref S-inhibitor; read-out: IC50, P388 cell line; cited from earlier work
ALK5 = conditions: read-out: IC50, ALK5; ref S-inhibitor; cited from earlier work
ALK4 = test system: ALK4; parameters: method as in S-inhibitor; conditions: ref S-inhibitor; cited from earlier work
VEGFR3 = test system: VEGFR3; parameters: method as in S-inhibitor catalog; conditions: vendor brief description; ref S-inhibitor catalog; cited from earlier work
c-Kit = test system: c-Kit; parameters: method as in S-inhibitor catalog; conditions: vendor brief description; ref S-inhibitor catalog; cited from earlier work
PDGFRβ = test system: PDGFRβ; parameters: method as in S-inhibitor catalog; conditions: vendor brief description; ref S-inhibitor catalog; cited from earlier work
VEGFR2 [5] = test system: VEGFR2; parameters: method as in S-inhibitor catalog; conditions: vendor brief description; ref S-inhibitor catalog; cited from earlier work
[6] = test system: AVP-induced platelet aggregation; parameters: method as in S-inhibitor catalog; conditions: vendor brief description; ref S-inhibitor catalog; read-out: IC50, inhibition of AVP-induced platelet aggregation; cited from earlier work
Bcr/Abl = test system: Bcr/Abl; parameters: method as in S-inhibitor catalog; conditions: vendor brief description; ref S-inhibitor catalog; cited from earlier work
[7] = read-out: Parasite inhibition (%) mean, preliminary screen, mean
[8] = read-out: Parasite inhibition (%) mean, preliminary screen of compound library, mean

CN(C)Cc1ccc(-c2nc3cccc4c3n2CCNC4=O)cc1 [AG14361]
Ki (PARP1): < 5 nM | inhibition of growth at 5 µM [1, 7]: 28.9%

C=CC(=O)Nc1ccc2ncnc(Nc3ccc(OCc4cccc(F)c4)c(Cl)c3)c2c1 [AST-1306]
IC50 (ErbB4): 0.8 nM | IC50 (EGFR): 0.5 nM | inhibition of growth at 5 µM [1, 7]: -33.7%

CNC(=O)CN1CCC(Oc2cc3c(Nc4cccc(Cl)c4F)ncnc3cc2OC)CC1 [AZD8931]
IC50 (HER2/ErbB2): 3 nM | IC50 (ErbB3): 4 nM | inhibition of growth at 5 µM [1, 7]: -20%

CCN1CCN(c2ccc(Nc3cc(N(C)C(=O)Nc4c(Cl)c(OC)cc(OC)c4Cl)ncn3)cc2)CC1 [BGJ398 (NVP-BGJ398)]
IC50 (FGFR3): 1 nM | IC50 (FGFR1): 0.9 nM | inhibition of growth at 5 µM [1, 7]: -8.9%

CC[C@@H]1C(=O)N(C)c2cnc(Nc3ccc(C(=O)N[C@H]4CC[C@H](N5CCN(CC6CC6)CC5)CC4)cc3OC)nc2N1C(C)C [BI6727 (Volasertib)]
IC50 (Plk1): 0.87 nM | inhibition of growth at 5 µM [1, 8]: 0.8%

Nc1cc(C(F)(F)F)c(-c2cc(N3CCOCC3)nc(N3CCOCC3)n2)cn1 [BKM120 (NVP-BKM120)]
IC50 (p110α [2]): […] | inhibition of growth at 5 µM [1, 8]: 41.3%

C[C@@H]1CC[C@@]2(OC1)O[C@H]1C[C@H]3[C@@H]4CC=C5C[C@H](O[C@@H]6O[C@@H](CO)[C@@H](O[C@@H]7O[C@@H](C)[C@H](O)[C@@H](O)[C@@H]7O)[C@H](O)[C@H]6O[C@@H]6O[C@@H](C)[C@H](O)[C@@H](O)[C@H]6O)CC[C@]5(C)[C@@H]4CC[C@]3(C)[C@@H]1[C@H]2C [Dioscin (Collettiside III)]
IC50 (MDA-MB-435 cell line): 2600 nM | IC50 (HL60 cell line): 7500 nM | IC50 (HeLa cell line): 4500 nM | IC50 (H14 cell line): 800 nM | inhibition of growth at 5 µM [1, 8]: 4.8%

CC1=NN(c2ccc(C)c(C)c2)C(=O)/C1=N/Nc1cccc(-c2cccc(C(=O)O)c2)c1O [Eltrombopag (SB-497115-GR)]
IC50 (hERG K+ channel): 690 nM | inhibition of growth at 5 µM [1, 8]: 0.7%

COc1cccc(Nc2c(C(N)=O)cnc3c(C)cc(S(=O)(=O)c4cccc(C(=O)N(C)C)c4)cc23)c1 [GSK256066]
IC50 (PDE4B): 0.0032 nM | inhibition of growth at 5 µM [1, 8]: 18.7%

c1ccc2c(-c3cnn4cc(-c5ccc(N6CCNCC6)cc5)cnc34)ccnc2c1 [LDN193189]
IC50 (ALK3): […] | IC50 (ALK2): […] | inhibition of growth at 5 µM [1, 8]: 21.7%

O=C(Nc1ncc(SCCN2CCCC2)s1)[C@]1(c2ccc(S(=O)(=O)C3CC3)cc2)C[C@@H]1C1CCCCC1 [LY2608204]
EC50 (glucokinase (GK)): 42 nM | inhibition of growth at 5 µM ([1]; read-out: Parasite inhibition (%) mean): -25.9%

Cc1cc(Nc2cc(CN3CCOCC3)c3nc(C)c(Cc4ccc(Cl)cc4F)n3n2)n[nH]1 [LY2784544]
IC50 (V617F mutant JAK2): 55 nM | inhibition of growth at 5 µM [1, 7]: 11.1%

Cc1ccc(C(=O)Nc2cccc(C(F)(F)F)c2)cc1Nc1nc(-c2cccnc2)nc2c1cnn2C [NVP-BHG712]
IC50 (c-Raf): 395 nM | ED50, EphB4 (EphB4): 25 nM | IC50 (Abl): 1670 nM | IC50 (Src): 1270 nM | ED50, VEGFR2 (VEGFR2 [3]): 4200 nM | inhibition of growth at 5 µM [1, 7]: -3.3%

COc1cccc2cc(-c3nc([C@H]4CC[C@H](C(=O)O)CC4)n4ncnc(N)c34)[nH]c12 [OSI-027]
IC50 (mTORC1): 22 nM | IC50 (mTORC2): 65 nM | inhibition of growth at 5 µM [1, 8]: 31%

Cc1ccccc1-n1c(Cn2ncc3c(N)ncnc32)nc2cccc(C)c2c1=O [PIK-293]
IC50 (p110α [4]): 100000 nM | IC50 (p110β): 25000 nM | IC50 (p110δ): 240 nM | IC50 (p110γ): 10000 nM | inhibition of growth at 5 µM [1, 7]: 1.1%

COc1ccc(COc2cc3oc(=O)c4cc(C(C)O)ccc4c3cc2OC)cc1 (centres unmarked) [Palomid 529]
IC50 (bFGF): 30 nM | IC50 (VEGF-A): 10 nM | inhibition of growth at 5 µM [1, 8]: -14.6%

COc1cc(Nc2ncc(F)c(Nc3ccc4c(n3)N(COP(=O)(O)O)C(=O)C(C)(C)O4)n2)cc(OC)c1OC [R788 (Fostamatinib)]
IC50 (Syk): […] | inhibition of growth at 5 µM [1, 8]: 27.4%

Cc1ccc(C(=O)N(CCCN)[C@@H](c2oc3cc(Cl)ccc3c(=O)c2Cc2ccccc2)C(C)C)cc1 [SB 743921]
IC50 (Colo205): 0.07 nM | IC50 (MV522): 1.7 nM | IC50 (SKOV3): 0.2 nM | IC50 (MX1): 0.06 nM | IC50 (P388): 14.4 nM | inhibition of growth at 5 µM [1, 7]: 0.5%

Cc1cccc(-c2[nH]c(C(C)(C)C)nc2-c2ccc3c(c2)OCO3)n1 [SB-505124]
IC50 (ALK5): 47 nM | IC50 (ALK4): 129 nM | inhibition of growth at 5 µM [1, 7]: -14.8%

CNC(=O)c1cc(COc2nnc(Nc3ccc(Cl)cc3)c3ccoc23)ccn1 [Telatinib (BAY 57-9352)]
IC50 (VEGFR3): 4 nM | IC50 (c-Kit): 1 nM | IC50 (PDGFRβ): 15 nM | inhibition of growth at 5 µM [1, 8]: -15.6% | IC50 (VEGFR2 [5]): 6 nM

Cc1ccccc1C(=O)Nc1ccc(C(=O)N2CCCC(O)c3cc(Cl)ccc32)c(C)c1 (centres unmarked) [Tolvaptan (OPC-41061)]
IC50 [6]: 1280 nM | inhibition of growth at 5 µM [1, 8]: -4.3%

CCC[C@H](NC(=O)/C(C#N)=C/c1cccc(Br)n1)c1ccccc1 [WP1130]
IC50 (Bcr/Abl): 1800 nM | inhibition of growth at 5 µM [1, 8]: 1.7%
